Each structure is given as a SMILES string.

This assay concerns the target histone deacetylase activity (HeLa nuclear extract). The experiment in a line: HDAC fluorescent activity assay (Biomol Fluor de Lys), HeLa nuclear extract. To be noted: HeLa nuclear extract as HDAC source; Fluor de Lys substrate; IC50 range; read-out: Inhibitor Activity versus HDAC. The class given is biochemical. How it is done: The ability of compounds of Examples 1 to 17 to inhibit histone deacetylase activities was measured using the commercially available HDAC fluorescent activity assay from Biomol. In brief, the Fluor de Lys™ substrate, a lysine with an epsilon-amino acetylation, is incubated with the source of histone deacetylase activity (HeLa nuclear extract) in the presence or absence of inhibitor. Deacetylation of the substrate sensitises the substrate to Fluor de Lys™ developer, which generates a fluorophore. Thus, incubation of the substrate with a source of HDAC activity results in an increase in signal that is diminished in the presence of an HDAC inhibitor.
Data are expressed as a percentage of the control, measured in the absence of inhibitor, with background signal being subtracted from all samples, as follows:— % activity=((S^i−B)/(S^o−B))×100 where S^i is the signal in the presence of substrate, enzyme and inhibitor, S^o is the signal in the presence of substrate, enzyme and the vehicle in which the inhibitor is dissolved, and B is the background signal measured in the absence of enzyme.
IC50 values were determined by non-linear regression analysis, after fitting the results of eight data points to the equation for sigmoidal dose response with variable slope (% activity against log concentration of compound), using Graphpad Prism software.
Histone deacetylase activity from crude nuclear extract derived from HeLa cells was used for screening. The preparation, purchased from 4C (Seneffe, Belgium), was prepared from HeLa cells harvested whilst in exponential growth phase. The nuclear extract is prepared according to Dignam J D 1983 Nucl. Acid. Res. 11, 1475-1489, snap frozen in liquid nitrogen and stored at −80° C. The final buffer composition was 20 mM Hepes, 100 mM KCl, 0.2 mM EDTA, 0.5 mM DTT, 0.2 mM PMSF and 20% (v/v) glycerol.
In the case of `COC(=O)[C@H]1Cc2c([nH]c3ccccc23)CN1C(=O)CCCCCCCC(=O)NO` [Example 12], the IC50 was 330 to 1000 nM.

Regarding `O=C(CCCCCC(=O)N1CCc2c([nH]c3ccccc23)C1C(F)(F)F)NO` (stereo not shown) [Example 8], the IC50 is 330 to 1000 nM.

For `O=C(CCCCCCCC(=O)N1CCc2c([nH]c3ccccc23)C1)NO` [Example 5], the IC50 is < 330 nM.

For the molecule `COc1ccc2[nH]c3c(c2c1)CCN(C(=O)CCCCCCCC(=O)NO)C3` [Example 7], the IC50 was < 330 nM.

Take `COC(=O)[C@H]1Cc2c([nH]c3ccccc23)CN1C(=O)CCCCCCC(=O)NO` [Example 4]: the IC50 was < 330 nM.

Consider `COC(=O)[C@H]1Cc2c([nH]c3ccccc23)CN1C(=O)CCCCCC(=O)NO` [Example 11], for which the IC50 lay within 330 to 1000 nM.

On to `O=C(CCCCCCC(=O)N1CCc2c([nH]c3ccccc23)C1C(F)(F)F)NO` (stereo not shown) [Example 9], for which the IC50 is < 330 nM.

Regarding `O=C(CCCCCCCC(=O)N1Cc2[nH]c3ccccc3c2C[C@@H]1C(=O)O)NO` [Example 17], the IC50 was 330 to 1000 nM.

For `COc1ccc2[nH]c3c(c2c1)CCN(C(=O)CCCCCC(=O)NO)C3` [Example 6], the IC50 is < 330 nM.

As for `O=C(CCCCCCC(=O)N1CCc2c([nH]c3ccccc23)C12CCCCC2)NO` [Example 14], the IC50 was < 330 nM.

In the case of `O=C(CCCCCC(=O)N1CCc2c([nH]c3ccccc23)C12CCCCC2)NO` [Example 13], the IC50 lay within 330 to 1000 nM.

On to `O=C(CCCCCC(=O)N1CCc2c([nH]c3ccccc23)C1)NO` [Example 2], for which the IC50 is < 330 nM.

For `O=C(CCCCCC(=O)N1Cc2[nH]c3ccccc3c2C[C@@H]1C(=O)O)NO` [Example 15], the IC50 lay within 330 to 1000 nM.

For the molecule `O=C(CCCCCCCC(=O)N1CCc2c([nH]c3ccccc23)C1C(F)(F)F)NO` (stereo not shown) [Example 10], the IC50 is < 330 nM.

Turning to `COc1ccc2[nH]c3c(c2c1)CCN(C(=O)CCCCCCC(=O)NO)C3` [Example 3], the IC50 is < 330 nM.

As for `O=C(CCCCCCC(=O)N1Cc2[nH]c3ccccc3c2C[C@@H]1C(=O)O)NO` [Example 16], the IC50 was < 330 nM.

The values above are taken from patent US20060235012A1, “Carboline and betacarboline derivatives for use as hdac enzyme inhibitors” (Chroma Therapeutics Limited, priority 2003, published 2006).
